Measured values reported in patent US10695433B2, “Pyrrolobenzodiazepine-antibody conjugates” (MEDIMMUNE LIMITED, priority 2012, dated 2020).

System: K562 human chronic myeloid leukaemia cells
Test: K562 assay (MTT cytotoxicity of released compounds)
Assay type: cell-based
Details: drug for 1 hour or 96 hours, MTT readout
Experimental: K562 human chronic myeloid leukaemia cells were maintained in RPM1 1640 medium supplemented with 10% fetal calf serum and 2 mM glutamine at 37° C. in a humidified atmosphere containing 5% CO2 and were incubated with a specified dose of drug for 1 hour or 96 hours at 37° C. in the dark. The incubation was terminated by centrifugation (5 min, 300 g) and the cells were washed once with drug-free medium. Following the appropriate drug treatment, the cells were transferred to 96-well microtiter plates (10^4 cells per well, 8 wells per sample). Plates were then kept in the dark at 37° C. in a humidified atmosphere containing 5% CO2. The assay is based on the ability of viable cells to reduce a yellow soluble tetrazolium salt, 3-(4,5-dimethylthiazol-2-yl)-2,5-diphenyl-2H-tetrazolium bromide (MTT, Aldrich-Sigma), to an insoluble purple formazan precipitate. Following incubation of the plates for 4 days (to allow control cells to increase in number by approximately 10 fold), 20 μL of MTT solution (5 mg/mL in phosphate-buffered saline) was added to each well and the plates further incubated for 5 h. The plates were then centrifuged for 5 min at 300 g and the bulk of the medium pipetted from the cell pellet leaving 10-20 μL per well. […] The optical density was then read at a wavelength of 550 nm on a Titertek Multiscan ELISA plate reader, and a dose-response curve was constructed.

Compound: COc1cc2c(cc1OCCCCCOc1cc3c(cc1OC)C(=O)N1C=C(C)C[C@H]1C=N3)N=C[C@@H]1CC(C)=CN1C2=O [RelE]
- IC50: 425 pM
